These results are taken from publication PMC3307704 (PLoS ONE, 2012).

Entries after “also recorded” stand apart in the source; their conditions may differ. Where two headings read alike, the source gives them in different places.

In data set [1] the target is T1, Human Aβ(1–42) (Homo sapiens, UniProt P05067).
T1 construct: Human Aβ(1–42) was purchased from AnaSpec (San Jose, CA); purchased AnaSpec (San Jose, CA)
Kind of data set: Aβ peptide oligomerization reaction with capture ELISA for Aβ oligomer detection. The following applies: for inhibition at 1 µM: read-out: Inhibitory activity (Aβ oligomerization). The data set is classed as biochemical.

Data set [2] deals with Murine microglial cells. Kind of data set: Wst-1 assay (cytotoxicity). The class given is cell-based. Particulars: 24 h.
Data set [3] has as its system low-molecular weight Aβ oligomers. Particulars: in vitro; read-out: IC50, formation of low-molecular weight Aβ oligomers; cited from earlier work.
Data set [4] concerns Aβ deposition in aged APP(Swedish)-transgenic mice (Tg2576). Particulars: dietary supplement; cited from earlier work.
Data set [5] concerns high-molecular weight fibrils (Aβ). Particulars: in vitro; read-out: IC50, formation of high-molecular weight fibrils; cited from earlier work.
Data set [6] relates to Aβ aggregation. The following applies: saturation of the 7-carbon linker; cited from earlier work.
The mark [7] stands for this setting: 1 µM compound, 200 nM monomeric Aβ peptide, 37°C, 24 h, capture ELISA.

T1 sequence (P05067 672-713 limits assumed): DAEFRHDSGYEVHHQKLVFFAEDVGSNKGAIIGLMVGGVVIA

On to `COc1ccc(/C=C/C(=O)/C=C(O)/C=C/c2ccc(OC)c(O)c2)cc1O` [compound 1], for which, in data set [1] (setting [7]), the inhibition at 1 µM came out at 80%. Consider `COc1ccc(/C=C/C(=O)/C=C(O)/C=C/c2ccc(OC)c(OC)c2)cc1OC` [compound 2], for which, in data set [2] (printed as fold lower than curcumin), the “LD50 value relative to that of curcumin” value is “approximately 2 fold”. In data set [1], the IC50 (as a rule, the concentration that inhibits the measured activity by half) was found to be 150 nM and the inhibition at 1 µM is 75%. The “Improvement of Aβ aggregation inhibitory activity over curcumin” value in data set [1] (ratio of IC50 values versus curcumin) is on record as 6-7 fold. As to `COc1cc(/C=C/C(=O)/C(C)=C(O)/C=C/c2ccc(O)c(OC)c2)ccc1O` [compound 3], in data set [1] (setting [7]), the inhibition at 1 µM worked out at 66%. For `COc1cc(/C=C/C(=O)/C(Cc2ccccc2)=C(O)/C=C/c2ccc(O)c(OC)c2)ccc1O` [compound 4], in data set [1] (setting [7]), the inhibition at 1 µM was 51%. With `COc1cccc(/C=C/C(=O)/C=C(O)/C=C/c2cccc(OC)c2OC)c1OC` [compound 7], in data set [1] (setting [7]), the inhibition at 1 µM was 45%.

As to `O=C(/C=C/c1ccc(O)c(O)c1)/C=C/c1ccc(O)c(O)c1` [compound 8], the inhibition at 1 µM in data set [1] (setting [7]) came out at 74%. The same measure, in the same setting: to `COC(=O)c1ccc(/C=C/C(=O)/C=C/c2ccc(C(=O)OC)cc2)cc1` [compound 9] belongs 66%; to `O=C(/C=C/c1ccccc1)/C=C/c1ccccc1` [compound 10], 65%; to `COc1cc(/C=C/C(=O)/C=C/c2ccccc2)ccc1O` [compound 11], 63%. Still for that read-out and setting: to `COc1ccccc1/C=C/C(=O)/C=C/c1ccccc1OC` [compound 12] belongs 63%. Turning to `Cc1ccc(/C=C/C(=O)/C=C/c2ccc(C)cc2)cc1` [compound 13], in data set [1] (setting [7]), the inhibition at 1 µM is 62%.

Take `COc1cc(/C=C/C(=O)/C=C/c2ccc(O)c(OC)c2)ccc1O` [compound 14]: the inhibition at 1 µM in data set [1] was 58%. As for `O=C(/C=C/c1cccc(Cl)c1)/C=C/c1cccc(Cl)c1` [compound 15], the inhibition at 1 µM in data set [1] (setting [7]) is 58%.

Turning to `COc1cccc(/C=C/C(=O)/C=C/c2cccc(OC)c2)c1` [compound 16], the inhibition at 1 µM in data set [1] (setting [7]) came out at 56%. Same read-out and setting: the same measure for `O=C(/C=C/c1cccc(C(F)(F)F)c1)/C=C/c1cccc(C(F)(F)F)c1` [compound 17]: 55%; for `CN(C)c1ccc(/C=C/C(=O)/C=C/c2ccc(N(C)C)cc2)cc1` [compound 18]: 54%. For `COc1cc(/C=C/C(=O)/C=C/c2ccc(OC(C)=O)c(OC)c2)ccc1OC(C)=O` [compound 19], the inhibition at 1 µM in data set [1] (setting [7]) turned out to be 53%. The same measure, in the same setting: to `O=C(/C=C/c1ccc(O)cc1)/C=C/c1ccc(O)cc1` [compound 20] belongs 49%. For `COc1cc(/C=C/C(=O)CC(=O)/C=C/c2ccc(O)c(OC)c2)ccc1O` [curcumin], the IC50 in data set [3] is 1000 nM; in data set [5] it was 800 nM. For the same compound, in data set [4], the “Effect on Aβ deposition” value is listed as “reduced Aβ deposition; also recorded: significantly lowered Aβ deposition”. Besides, the “LD50 value (cytotoxicity, Wst-1)” value in data set [2] is 40 µM. Also, the inhibition at 1 µM in data set [1] stood at 50%.

For the compound `COc1cc(CCC(=O)CC(=O)CCc2ccc(O)c(OC)c2)ccc1O` [tetrahydrocurcumin], the “Aβ aggregation inhibitory activity” value in data set [6] is recorded as “abolished Aβ aggregation inhibitory activity”.
